Experimental data published in US20120114639A1, “COMPOSITIONS AND METHODS FOR INHIBITING VIRAL AND/OR BACTERIAL INFECTIONS” (priority 2010, published 2012).

How the values were obtained:
[1] = system: p-EGFR, p-KGFR and downstream effector p-ERK1/2; assay: EGFR and KGFR signal activation, phospho-protein immunoblot in serum-starved HaCaT cells; type: cell-based, human; settings: 10 minutes ligand exposure; 100 nM PD168393, 1 μM PD173074, 100 μM genistein, 100 μM daidzein, 600 nM cetuximab
Protocol: FIG. 6. […] (A-B) Immunoblot of p-EGFR, p-KGFR and downstream effector p-ERK1/2 following 10 minutes ligand exposure (listed at the left of each blot: EGF, KGF, HPV16 PsV; lane 2) in serum-starved HaCaT cells. Mock exposed cells were negative controls (lane 1); ligand controls included 10 ng/ml EGF and 10 ng/ml KGF exposure (10 minutes). […] Actin is detected as a loading control. (C-D) Immunoblot of nuclear cell fractions and confocal microscopy localization of p-ERK1/2 following EGF and HPV16 exposure in serum-starved HaCaT cells at indicated times post-exposure. (C) Immunoblot for p-ERK1/2 in nuclear fractions from exposed cells. (D) Immunofluorescent confocal microscopy for localization of p-ERK1/2 (red) in PsV exposed cells. DAPI was used as a nuclear marker and was pseudocolored green to facilitate efficient co-localization of p-ERK1/2 in the nucleus. Parameters of lasers intensities were kept constant during the imaging.
Subconfluent HaCaT cells were serum-starved for 3-4 hours in Tyrode's buffer containing 0.05% BSA. After adding ˜100 vge/cell HPV16 PsV, 10 ng/ml EGF or 10 ng/ml KFG, cells were incubated at 37° C. for 10 minutes before transferring to ice and solubilizing cells with RIPA buffer. In some experiments cells were incubated with various inhibitors in Tyrode's buffer for 45 minutes and after Tyrode's washes, were incubated with virus as above in the presence of inhibitors. Lysates were clarified, mixed with Laemmli buffer and boiled for five minutes prior to SDS-PAGE Tmmunoblot was performed with various monoclonal and polyclonal antibodies: p-EGFR, p-KGFR (p-FGFR2b), p-ERK, actin. Nuclear fractionation was performed for detection of p-ERK movement into the nucleus. HaCaT cells were starved 4 h in Tyrode's solution containing 0.05% BSA, then exposed to HPV or EGF for various times. Cells were solubilized with NP40 lysis buffer and centrifuged. The pellet was incubated with nuclear extraction buffer. Following incubation on ice for one hour, the extract was clarified and the supernatant subjected to SDS-PAGE and immunoblot for analysis of p-ERK content.

HPV16 [2] = assay: HPV16 PsV infection of HaCaT cells, luciferase assay; type: cell-based, human papillomavirus; settings: for block of HPV16 infection / reduction of infectivity: HaCaT in CM, 24 hours in presence of inhibitor, 1 μM AG1478, 100 nM PD168393, 100 μM genistein, 1 μM PD173074, 100-600 nM cetuximab, 100 vge/cell; for restoration of HPV16 infectivity in SFM by added factor: serum-starved HaCaT, HPV16 bound in SFM, 24 hours in SFM plus factor, compared to CM; for visible toxicity in dose-response analysis: HaCaT cells, dose-response of infection inhibition; for IC50: Human papillomavirus 16, HaCaT, read-out: IC50 of HPV16 infection inhibition
Protocol: FIG. 2. […] (A, B) Immunoblot for syndecan-1 (polyclonal syndecan-1 Ab) after 24 hours at 37° C. in CM (A) or post starvation in SFM and after six hours at 37° C. in Tyrode's Buffer (B); immunoblot for HPV16 L1 released into CM post virus binding for indicated times (C) or 24 hours (E). […] Cells were untreated (U) or pre-treated with BM or MM for one hour, then exposed to HPV16 PsV in the presence of inhibitors in CM. Infection was assayed by quantifying luciferase levels at 24 hours p.i. (F). Data are represented as mean±SEM of three experiments. (G-H) IC50 of HPV16 infectivity inhibition by MMIP inhibitors batimastat and mariniastat. HaCaT cells incubated with serial dilutions of batimastat or marimastat in CM, for one hour before incubation with 100 viral genome equivalents (vge)/cell HPV16, one hour at 4° C. After washing away unbound virus, cells were incubated for 24 hours at 37° C. in the presence of inhibitors. HPV16 infection was measured with luciferase assay. Data are represented as mean±SEM of 3 experiments.
(§1) FIG. 7. […] (A) Relative HPV16 infection of HaCaT cells in the presence of specific GFR and protein tyrosine kinase inhibitors. […] Cells were exposed to HPV16 PsV at 100 vge/cell for one hour at 4° C., then washed extensively and shifted to 37° C. in the presence of the indicated inhibitor in CM for 24 hours at which time they were analyzed for luciferase expression. Data are represented as mean±SEM of three experiments. (B-C) EGFR knockdown was accomplished using siRNA to EGFR and the percent of EGFR protein remaining in EGFR-siRNA transfected HaCaT cells was determined by immunoblot and compared by densitometry to EGFR levels in cells transfected with a negative control siRNA at 48 hours post transfection. Four separate transfections were analyzed (B) and HPV16 PsV infection levels were measured at 24 hours post infection (48 hours post transfection) in each (C). Error bars represent the average of triplicate luciferase readings from the four transfections. (D) Cells were pre-treated four hours with 100 μm monastrol, pre-treated with monastrol for four hours plus PD168393 for duration, or pre-treated with PD168393 for four hours plus monastrol for duration. […] HaCaT cells starved in SFM (four hours) were exposed to HPV16 in CM (positive control) or SFM. After washing away unbound virus, cells were incubated for 24 hours in CM, Ty (Tyrode's buffer containing 0.05% BSA), SFM, syndecan-1 depleted CM (IP-syd), or EGF-depleted CM (IP-EGF). Infection was quantified by luciferase assay 24 hours post shift to 37° C. Data are represented as mean SEM of three experiments. […] HaCaT cells starved in SFM were exposed to HPV16 in SFM for one hour at 4° C. After washing away unbound virus, cells were incubated for 24 hours in. SFM, SFM containing GF, or in CM. Infections were quantified by luciferase assay; bars represented the mean SEM of three individual experiments. (G). To investigate if infection inhibition by the various agents used in FIG. 7A,D,E could be attributed to cell cycle changes, we used identical conditions and timing of inhibitor treatment on HaCaT cells. We then stained with propidium iodide and examined the cell cycle using flow cytometry. The fractions of cells in G1 (1n), S (intermediate), and G2/M (2n) phases were expressed as percentages of the total.

HPV16 [3] = assay: HPV16 release from HaCaT cells into media, L1 immunoblot; type: cell-based, human papillomavirus; settings: CM, MMP inhibitor, FIG. 2E
Protocol: FIG. 2. HPV16 and syndecan-1 release from the HaCaT cell plasma membrane is MMP dependent. (A, B) Immunoblot for syndecan-1 (polyclonal syndecan-1 Ab) after 24 hours at 37° C. in CM (A) or post starvation in SFM and after six hours at 37° C. in Tyrode's Buffer (B); immunoblot for HPV16 L1 released into CM post virus binding for indicated times (C) or 24 hours (E). (D) Gelatin zymography showing protease activity present in HaCaT cell CM alone or with binding of HPV16. (E-F) Effect of MMP inhibitors batimistat (BM) or marimastat (MM) at the indicated concentrations on HPV16 release into media as in panel C and densitometric quantification with AlphaEaseFC software (E) and relative infection levels (F). Cells were untreated (U) or pre-treated with BM or MM for one hour, then exposed to HPV16 PsV in the presence of inhibitors in CM. Infection was assayed by quantifying luciferase levels at 24 hours p.i. (F). Data are represented as mean±SEM of three experiments. […] HPV16 infection was measured with luciferase assay. […]
HaCaT cells were incubated with 200 vge/cell of HPV PsVs for 1 h at 4° C., washed three ties with media and incubated at 37° C. for various times before harvesting the experimental media. […] The eluted fractions were analyzed by SDS-PAGE followed by immunoblotting for HPV16 L1, proteoglycans and growth factors. […]

HaCaT cells = assay: Cell cycle analysis by propidium iodide flow cytometry; type: cell-based, human; settings: HaCaT cells in CM infected with HPV16, same inhibitor conditions as infection assays
Protocol: as §1, with “To investigate if infection inhibition by the various agents used in FIG. 7A,D,E could be attributed to cell cycle changes, we used identical conditions and timing of inhibitor treatment on HaCaT cells. We then stained with propidium iodide and examined the cell cycle using flow cytometry.” left out

O=c1c(-c2ccc(O)cc2)coc2cc(O)cc(O)c12 [genistein]
rapid phosphorylation of the target GFR and downstream p-ERK1/2 induced by GFs or HPV16 [1]: diminished | block of HPV16 infection / reduction of infectivity (HPV16 [2]): almost completely blocked infection

COc1cc2ncnc(Nc3cccc(Cl)c3)c2cc1OC [AG1478]
rapid phosphorylation of the target GFR and downstream p-ERK1/2 induced by GFs or HPV16 [1]: completely abrogating signaling

albumin
restoration of HPV16 infectivity in SFM by added factor (HPV16 [2]): did not enhance infectivity

CNC(=O)[C@@H](NC(=O)[C@H](CC(C)C)[C@H](O)C(=O)NO)C(C)(C)C [marimastat]
release of HPV16 from cells (HPV16 [3]): effectively prevented the release | HPV16 infection of HaCaT cells (in words) (HPV16 [2]; CM, luciferase 24 hours p.i.): efficiently reduced HPV16 infection | infection inhibition under cell cycle assay conditions (HPV16 [2]; HaCaT cells grown in CM and infected with HPV16): ~90% | visible toxicity in dose-response analysis (HPV16 [2]): absence of visible toxicity | IC50 (HPV16 [2]): 1000 nM | cell cycle distribution (G1, S, G2/M) versus no treatment (HaCaT cells): relatively similar

CNC(=O)[C@H](Cc1ccccc1)NC(=O)[C@H](CC(C)C)[C@H](CSc1cccs1)C(=O)NO [batimastat]
visible toxicity in dose-response analysis (HPV16 [2]): absence of visible toxicity | IC50 (HPV16 [2]): 400 nM

CCN(CC)CCCCNc1ncc2cc(-c3cc(OC)cc(OC)c3)c(NC(=O)NC(C)(C)C)nc2n1 [PD173074]
block of HPV16 infection / reduction of infectivity (HPV16 [2]): 35% | cell cycle distribution (G1, S, G2/M) versus no treatment (HaCaT cells): relatively similar

O=c1c(-c2ccc(O)cc2)coc2cc(O)ccc12 [daidzein]
rapid phosphorylation of the target GFR and downstream p-ERK1/2 induced by GFs or HPV16 [1]: no inhibitory effect

EGF: epidermal growth factor
restoration of HPV16 infectivity in SFM by added factor (HPV16 [2]): fully restore infection levels

C=CC(=O)Nc1ccc2ncnc(Nc3cccc(Br)c3)c2c1 [PD168393]
rapid phosphorylation of the target GFR and downstream p-ERK1/2 induced by GFs or HPV16 [1]: diminished | infection inhibition when PD168393 treatment was added with monastrol (HPV16 [2]; HaCaT, 100 μM monastrol plus PD168393, FIG. 7D): ≈ 70% | cell cycle distribution (G1, S, G2/M) versus no treatment (HaCaT cells): relatively similar
